How the values were obtained:
MDM2 = MDM2 (Homo sapiens, UniProt Q00987); test: Pull-down with biotin-labeled AS1411 in HeLa cells transfected with si-NC or si-NCL; format: cell-based; set-up: HeLa cervical cancer cells were lysed with an IP lysis solution; endogenous in cells; host or cells: HeLa; conditions: 500 nM biotin-labeled, 6 h, si-NCL vs si-NC
Description: HeLa cells were transfected with negative control siRNA (si-NC, SEQ ID NO: 16) or NCL siRNA (si-NCL, SEQ ID NO: 17) and subsequently incubated with 500 nM biotin-labeled AS1411 for 6 h. After cell lysis, the supernatant was incubated with streptavidin-coated magnetic beads at 4° C. overnight. The bound AS1411 and its captured proteins on the magnetic beads were eluted with an eluent, and the pull-down products were detected by western blot assay.

NCL = NCL (Homo sapiens, UniProt P19338); test: Biotin-oligonucleotide pull-down from HeLa cell lysate, western blot (NCL); format: binding; set-up: HeLa cervical cancer cells were lysed with an IP lysis solution; endogenous in cells; host or cells: HeLa cell lysate; conditions: 5′-biotin label, 0 nM-20 μM
Description: HeLa cervical cancer cells were lysed with an IP lysis solution (purchased from Thermo Scientific, Cat. No.: 87788) and then incubated with a CRO (cytosine-rich oligonucleotide, negative control, SEQ ID NO: 13), AS1411, or iSN04 labeled by biotin at the 5′ end at different concentrations (0 nM, 200 nM, 500 nM, 1 μM, 5 μM, 10 μM, and 20 μM) at 4° C. for 6h. Subsequently, streptavidin agarose gel beads (purchased from cytiva, Cat. No.: 17511301) were added, and the mixture was further incubated at 4° C. overnight. After the bound biotin-labeled CRO, AS411, or iSN04 and its captured proteins on the gel beads were washed multiple times with an IP lysis buffer (purchased from Thermo Scientific, Cat. No.: 87788), an SDS-PAGE protein loading buffer (purchased from Beyotime, Cat. No.: P0015) was added, and the mixture was heated to 100° C. and held for 10 min. After centrifugation, the supernatant was collected as a pull-down product. The pull-down product was detected by western blot assay.

STAT3 = STAT3 (Homo sapiens, UniProt P40763); test: STAT3 protein degradation in HeLa cells, western blot; format: cell-based; set-up: endogenous in cells; host or cells: HeLa; conditions: 500 nM, 6 h
Description: HeLa cells were incubated with 500 nM said first PROTAC product 1411-S3-1 or second PROTAC product 1411-S3-2, and corresponding cell samples were collected at time gradients of 0 h, 2 h, 6 h, 12 h, 18 h, and 24 h for protein extraction and subsequent western blot assay.
HeLa cells were incubated with the first PROTAC product 1411-S3-1 or the second PROTAC product 1411-S3-2 at concentrations of 0 nM, 100 nM, 200 nM, 500 nM, and 1000 nM. After 6 h, cell samples were collected for protein extraction and subsequent western blot assay. […] The half-maximal degradation concentrations (DC50) of the first PROTAC product 1411-S3-1 and the second PROTAC product 1411-S3-2 against STAT3 at the protein level were 262.5 nM and 136.3 nM, respectively, as shown in FIG. 19.
HeLa cells were incubated with 500 nM double-stranded transcription factor decoy oligonucleotide S3, AS1411, the first PROTAC product 1411-S3-1, the second PROTAC product 1411-S3-2, or AS1411+double-stranded transcription factor decoy oligonucleotide S3. After 6 h, cell samples were collected for protein extraction and subsequent western blot assay.
HeLa cells were incubated with 500 nM said first PROTAC product 1411-S3-1 or second PROTAC product 1411-S3-2, and proteasome inhibitor MG132 was added. After 6 h, cell samples were collected for protein extraction and subsequent western blot assay. […]

HeLa cells = test: Cell penetration and intracellular colocalization, confocal laser microscope; format: cell-based; conditions: 500 nM Cy5-labeled, 6 h
Description: HeLa cells were incubated with 500 nM Cy5-labeled CRO or AS1411 for 6 h. After the incubation was completed, immunofluorescence staining was performed on NCL and MDM2, and 4′,6-diamidino-2-phenylindole (DAPI) was used to stain nuclei. The cell penetration of the CRO or AS1411 and the intracellular colocalization of the CRO or AS1411 with NCL and MDM2 were observed under a confocal laser microscope.
HeLa cells were transfected with si-NC or si-NCL and subsequently incubated with 500 nM Cy5-labeled AS1411 for 6 h. After the incubation was completed, immunofluorescence staining was performed on MDM2, and DAPI was used to stain nuclei. The intracellular colocalization of AS1411 with MDM2 was observed by a confocal laser microscope.

STAT3, sequence (P40763 whole entry): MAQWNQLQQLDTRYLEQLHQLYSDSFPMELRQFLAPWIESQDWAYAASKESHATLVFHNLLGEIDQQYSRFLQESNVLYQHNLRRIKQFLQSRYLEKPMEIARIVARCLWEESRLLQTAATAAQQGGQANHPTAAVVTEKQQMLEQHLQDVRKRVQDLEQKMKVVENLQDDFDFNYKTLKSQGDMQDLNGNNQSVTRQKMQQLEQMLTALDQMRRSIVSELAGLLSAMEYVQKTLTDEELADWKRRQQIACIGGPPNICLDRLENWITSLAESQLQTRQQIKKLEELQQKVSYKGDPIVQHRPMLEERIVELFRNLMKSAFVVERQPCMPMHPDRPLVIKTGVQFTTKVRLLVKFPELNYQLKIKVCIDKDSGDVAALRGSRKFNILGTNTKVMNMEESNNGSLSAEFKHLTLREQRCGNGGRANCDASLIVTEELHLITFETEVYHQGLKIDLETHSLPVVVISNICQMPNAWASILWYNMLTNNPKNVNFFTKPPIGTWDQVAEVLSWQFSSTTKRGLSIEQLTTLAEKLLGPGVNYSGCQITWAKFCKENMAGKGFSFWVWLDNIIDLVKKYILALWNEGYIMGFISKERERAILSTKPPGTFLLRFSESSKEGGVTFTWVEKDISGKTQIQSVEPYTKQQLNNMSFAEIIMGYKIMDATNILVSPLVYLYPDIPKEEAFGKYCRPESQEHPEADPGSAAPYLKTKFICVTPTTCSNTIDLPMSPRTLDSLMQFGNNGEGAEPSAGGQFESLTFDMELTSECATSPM
MDM2, sequence (P19338 2-710 partner limits assumed): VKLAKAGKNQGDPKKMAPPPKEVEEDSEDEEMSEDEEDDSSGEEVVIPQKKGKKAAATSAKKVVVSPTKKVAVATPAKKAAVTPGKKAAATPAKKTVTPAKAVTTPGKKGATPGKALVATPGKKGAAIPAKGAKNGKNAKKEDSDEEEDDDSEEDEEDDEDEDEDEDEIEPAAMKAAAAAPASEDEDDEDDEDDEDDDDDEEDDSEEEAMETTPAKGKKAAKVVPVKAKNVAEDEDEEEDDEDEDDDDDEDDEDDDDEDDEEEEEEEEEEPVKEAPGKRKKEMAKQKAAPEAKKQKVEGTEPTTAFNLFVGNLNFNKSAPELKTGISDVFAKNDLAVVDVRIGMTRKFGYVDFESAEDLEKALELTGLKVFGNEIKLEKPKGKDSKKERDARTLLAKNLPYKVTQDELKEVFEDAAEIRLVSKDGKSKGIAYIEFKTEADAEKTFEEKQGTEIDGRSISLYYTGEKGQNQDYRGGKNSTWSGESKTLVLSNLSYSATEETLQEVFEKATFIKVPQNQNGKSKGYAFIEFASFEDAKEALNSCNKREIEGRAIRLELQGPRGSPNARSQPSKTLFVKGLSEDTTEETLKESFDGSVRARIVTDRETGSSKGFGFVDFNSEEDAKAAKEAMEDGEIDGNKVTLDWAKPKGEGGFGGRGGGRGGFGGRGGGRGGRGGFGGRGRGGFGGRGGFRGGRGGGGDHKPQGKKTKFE
MDM2, sequence (Q00987 whole entry): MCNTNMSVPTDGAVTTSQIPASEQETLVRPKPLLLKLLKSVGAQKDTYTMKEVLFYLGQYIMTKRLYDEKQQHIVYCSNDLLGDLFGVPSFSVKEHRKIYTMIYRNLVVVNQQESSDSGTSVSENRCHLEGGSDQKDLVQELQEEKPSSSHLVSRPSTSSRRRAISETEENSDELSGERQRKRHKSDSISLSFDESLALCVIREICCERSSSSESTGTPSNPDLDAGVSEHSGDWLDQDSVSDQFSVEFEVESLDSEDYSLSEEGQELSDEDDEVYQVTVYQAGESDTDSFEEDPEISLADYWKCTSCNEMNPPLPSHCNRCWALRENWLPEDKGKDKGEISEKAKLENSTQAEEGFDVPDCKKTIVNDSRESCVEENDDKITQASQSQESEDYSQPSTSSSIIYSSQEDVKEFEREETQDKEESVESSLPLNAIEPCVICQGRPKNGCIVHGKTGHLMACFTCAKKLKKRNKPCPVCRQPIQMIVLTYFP
NCL, sequence (P19338 whole entry): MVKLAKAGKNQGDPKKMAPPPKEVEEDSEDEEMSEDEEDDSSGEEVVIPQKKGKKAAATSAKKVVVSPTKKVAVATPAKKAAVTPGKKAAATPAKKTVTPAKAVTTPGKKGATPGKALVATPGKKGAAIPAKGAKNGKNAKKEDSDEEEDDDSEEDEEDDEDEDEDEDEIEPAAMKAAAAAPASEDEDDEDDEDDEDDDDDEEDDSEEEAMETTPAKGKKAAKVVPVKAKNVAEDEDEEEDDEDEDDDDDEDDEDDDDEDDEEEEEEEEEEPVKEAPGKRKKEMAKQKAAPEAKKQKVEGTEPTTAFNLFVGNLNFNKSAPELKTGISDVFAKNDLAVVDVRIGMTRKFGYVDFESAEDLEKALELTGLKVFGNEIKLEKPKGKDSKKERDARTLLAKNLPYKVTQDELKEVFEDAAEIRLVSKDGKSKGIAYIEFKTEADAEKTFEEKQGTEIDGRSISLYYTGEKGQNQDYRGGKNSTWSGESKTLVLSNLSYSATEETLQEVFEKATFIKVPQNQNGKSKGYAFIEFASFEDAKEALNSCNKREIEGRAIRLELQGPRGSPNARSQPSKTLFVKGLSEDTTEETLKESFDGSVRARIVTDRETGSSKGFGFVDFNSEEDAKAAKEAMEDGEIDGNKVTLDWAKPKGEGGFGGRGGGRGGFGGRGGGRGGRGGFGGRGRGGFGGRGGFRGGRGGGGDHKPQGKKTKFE

AS1411: DNA aptamer, GRO binding NCL, SEQ ID NO: 1: 5′-GGTGGTGGTGGTTGTGGTGGTGGTGG-3′
recruitment of MDM2 when NCL is silenced (MDM2): silencing NCL can block the recruitment of MDM2 by AS1411 | capture of NCL (NCL): can capture NCL and MDM2 in a concentration-dependent manner | protein level of STAT3 (STAT3): only the first PROTAC product 1411-S3-1 and the second PROTAC product 1411-S3-2 can reduce the protein level of transcription factor STAT3 | cell penetration (HeLa cells): can penetrate HeLa cells | intracellular colocalization with NCL and MDM2 (HeLa cells): exhibits significant colocalization with both NCL and MDM2 | cell penetration when NCL is silenced (HeLa cells; si-NCL): silencing NCL can block AS1411 from penetrating cells | intracellular colocalization with MDM2 when NCL is silenced (HeLa cells; si-NCL): no observed colocalization between AS1411 and MDM2

From patent US20260256923A1, “NEW RECRUITMENT ELEMENT OF UBIQUITIN LIGASE AND USE THEREOF” (SHENZHEN LINGGENE BIOTECH CO., LTD., priority 2023, published 2026)
